Values of other authors as cited in patent publication US12220416B2, “Methylene-tetrahydrofolate reductase isoform-based biomarker and method of use thereof” (RUSH UNIVERSITY MEDICAL CENTER, priority 2017, dated 2025).

Settings: RA patients on MTX therapy; ADEs provoke discontinuation of MTX therapy; ref [38]

## CN(Cc1cnc2nc(N)nc(N)c2n1)c1ccc(C(=O)N[C@@H](CCC(=O)O)C(=O)O)cc1 [MTX, Methotrexate]
  RA patients developing MTX-related adverse drug events (ADEs): approximately 30%
